In patent US7326679B2, “Anticancer peptide compositions” (TranXenoGen, Inc., priority 2003, dated 2008):
Entries after “also recorded” stand apart in the source; their conditions may differ. Square brackets hold non-standard residues; d marks the D form. Ends that are not written are not given here. pGlu = O=C1CC[C@@H](C(=O)O)N1

Tests used:
[1] = system: bFGF induced angiogenesis; experiment: Chicken chorioallantoic membrane (CAM) assay; type: in vivo, White Leghorn chick embryos; conditions: for inhibition of bFGF-induced angiogenesis: day-10 chick embryos; for anti-angiogenic activity in CAM assay (overall): increasing doses, 100 ng or 200 ng bFGF, 48 hours at 37° C.
From the text: The chicken chorioallantoic membrane (CAM) assay was completed to assess the effect of the peptides on basic fibroblast growth factor (bFGF) induced angiogenesis. Small windows were created through the blunt end of the shell directly over the air sac of 9-10 day old White Leghorn chick embryos with the use of a small crafts Dremel drill. The air sac was peeled-off, and filter disks saturated with basic fibroblast growth factor (bFGF) and the test peptide (or buffer control) were placed adjacent to each other on the CAM of the chick embryo. The shell windows were sealed with parafilm and eggs were incubated at 37° C. in a humidified egg incubator. After 48-72 hours, the CAM tissue directly below the filter disks was resected. Tissues were washed three times with PBS and analyzed using a stereomicroscope. The number of branching blood vessels infiltrating under the filter disks were determined and documented.

[2] = system: neo-vascularization of early chick embryo; experiment: Chick embryo neo-vascularization inhibition assay; type: in vivo, White Leghorn chick embryos; conditions: day-3.5 chick embryo, filter disks
From the text: This assay was completed to determine the impact of Pep A and Pep B on neo-vascularization of early chick embryo. Small windows were created through the blunt end of the shell directly over the air sac of 3.5-day old White Leghorn chick embryos with the use of a small crafts Dremel drill. The air sac was peeled-off and filter disks with different concentrations of the test peptide or buffer control were placed over a section of the developing blood ring and overlapping connecting vessels of the chick embryo. The shell windows were sealed with parafilm and eggs were incubated at 37° C. in a humidified egg incubator. After 48-72 hours, the yolk membrane tissue directly below the filter disks was resected. Tissues were washed three times with PBS and analyzed for inhibition of neo-vascularization using a stereomicroscope with photo-digital attachment.

[3] = system: HeLa tumor; experiment: In vivo nude mice experiment, HeLa tumor growth; parameters: species or system Nude nu/nu mice; conditions: for inhibition of HeLa tumor growth during treatment phase (average tumor volume): n=3; for tumor growth profile post treatment: after fourth treatment until day 24, Pep A 500 and 750 μg, Pep B 500 μg; for response of individual tumors to treatment: tumor volumes on day 14, one day post last treatment; for vascularization and infiltration of isolated tumors (histopathology): compared to control mice
Protocol: The HeLa human cervical cancer cell line (ATCC, Manassas Va.; CCL-2) was grown according to direction in DMEM containing 10% fetal bovine serum. Cells in log phase were harvested from flasks using trypsin-EDTA (0.25% trypsin/1 mM Na-EDTA; Invitrogen), washed in PBS and resuspended in DMEM for counting and viability assessment using trypan blue exclusion. […] Cells were resuspended at 5×10^7 cells/mL in PBS for injection into the mice.
Nude nu/nu mice (4 to 5 week-old females) were acclimated for 1 week and injected with 5 million HeLa cells subcutaneously (SQ) in a total volume of 100 μL. After 3 days of tumor development, the mice were injected SQ with each peptide prepared in phosphate buffered saline (PBS) containing 0.05% sodium dodecyl sulfate (SDS) or PBS+0.05% SDS alone. All doses were 200 μL in volume, with additional treatments on days 6, 10 and 13 post-transplantation. Treatments were alternated between flanks of the mice. Tumor size and mouse weights were measured three times per week. The results represent the average of the 3 mice in each group. The experiment was terminated on day 24 and the tumors were excised for weight and histopathology.
HeLa cells (5×10^6 cells in 100 μL were administered subcutaneously (SQ). The cells were implanted in the left mid-flank region of 5 week old immunodeficient Nude nu/nu female mice (Charles River Labs, Wilmington, Mass.) and allowed to develop to palpable size (average diameter=[…]; average volume=24 mm^3). Mice were randomized and divided into experimental groups, with 3 mice per group. The mice were treated with SQ injections (200 μL) of various doses of peptide in phosphate buffered saline (PBS) containing a detergent, e.g., 0.05% sodium dodecyl sulphate (SDS). Control mice were injected with PBS containing 0.05% SDS alone. […] The treatments were administered on days 3, 6, 10 and 13 post-transplantation. Tumors were measured three times per week until the experiment was terminated on day 24 post-transplantation.

[4] = system: CAM tissue cells; experiment: Detection of cell death in resected CAM tissues (H-33342 and propidium iodide staining); type: in vivo, chick embryos; conditions: for apoptosis / DNA fragmentation (H-33342 staining): 100 ng bFGF plus 200 ng peptide
Protocol: Following staining, the tissues were washed three times in PBS and fixed in 4% formalin. The tissues were visualized under epifluorescence using a photo-digital imaging system. The number of live, apoptotic and necrotic cells were determined.

[5] = system: OSRC human osteogenic sarcoma tumor; experiment: Osteosarcoma (OSRC) tumor model in nude mice; type: in vivo, Nude nu/nu mice; conditions: SQ treatments on days 8, 11, 14 and 17; n=4
Protocol: Tumor cell culture and harvesting was carried out as follows. Human osteogenic sarcoma cancer cells (OSRC cell line) was grown in DMEM containing additional non-essential amino acids and vitamins and 10% heat inactivated fetal bovine serum (Invitrogen™, Carlsbad, Calif.). Cells in log phase were harvested from flasks using trypsin-EDTA (0.05% trypsin/0.53 mM Na-EDTA; Invitrogen™), washed in PBS and resuspended in DMEM for counting and viability assessment using trypan blue exclusion. Cells were resuspended at 2.5×10^7 cells per ml in PBS for injection into the mice.
Nude nu/nu mice (4 to 5 week-old females, Charles River Labs, Wilmington, Mass.) were acclimated for 1 week before injection with 2.5 million OSRC cells subcutaneously (SQ) in a total volume of 100 μl. After 8 days of tumor development, the mice were injected SQ with each peptide or the protein pool prepared in phosphate buffered saline (PBS) containing 0.05% sodium dodecyl sulfate (SDS) or PBS+0.05% SDS alone (Control). All doses were 200 μl in volume, with additional treatments on days 11, 14 and 17 post-transplantation. Treatments were alternated between flanks of the mice. Tumor size (length, width and height) and mouse weights were measured three times per week. The results (FIGS. 6A-B) represent the average of the 4 mice in each group. […]

[6] = 200 ng peptide with 100 ng bFGF
[7] = 500 μg per dose SQ on days 3, 6, 10 and 13

Substance | inhibition of bFGF-induced angiogenesis [1, 6] | anti-angiogenic activity in CAM assay (overall) [1] | suppression of neo-vascularization / branching vessel formation [2] | inhibition of HeLa tumor growth during treatment phase (average tumor volume) [3, 7] | tumor growth profile post treatment [3] | response of individual tumors to treatment [3] | vascularization and infiltration of isolated tumors (histopathology) ([3]; tumors isolated upon sacrifice) | apoptosis / DNA fragmentation (H-33342 staining) [4] | condensation of the cell nuclei ([4]; compared to controls) | osteosarcoma tumor volume (tumor burden) [5] | suppression of bFGF-induced angiogenesis ([1]; 200 ng of bFGF) | inhibition of bFGF-induced angiogenesis ([1]; Pep A with 100 ng bFGF) | inhibition of HeLa tumor growth during treatment phase (average tumor volume) ([3]; 750 μg per dose SQ on days 3, 6, 10 and 13) | areas of cell death in isolated tumors (histopathology) ([3]; tumors isolated upon sacrifice) | apoptosis / DNA fragmentation (H-33342 staining) ([4]; listed as PepA)
pyroELKCYTCKEPMTSASCRTIT ([pGlu]LKCYTCKEPMTSASCRTIT; cysteine pairing not given here) [Pep B] | inhibition of bFGF-induced angiogenesis | inhibited angiogenesis | dose dependent suppression of branching vessel formation | tumor inhibition during the treatment phase | escalation of tumor burden; also recorded: lost shortly after treatment stopped | response of all animals | significantly less vascularization and infiltration | did not demonstrate the peri-vascular apoptosis; also recorded: minimal increase in apoptosis over the control | observable condensation of the cell nuclei |  |  |  |  |  | 
ELKCYTCKEPMTSASCRTIT [Pep A] | comparatively better inhibition of blood vessel infiltration | inhibited angiogenesis; also recorded: more potent anti-angiogenic agent | dose dependent suppression of branching vessel formation | tumor inhibition during the treatment phase | slight increase in tumor burden; also recorded: only limited tumor growth for the duration of the experiment | response of all animals | significantly less vascularization and infiltration | Intensely staining apoptotic nuclei (white) of vascular cells; also recorded: significant increase in DNA fragmentation |  | reduction of osteosarcoma tumor volume | showed suppression | inhibition of neo-vascularization and infiltration as well as degradation of pre-existing vessels | tumor inhibition during the treatment phase | larger areas of cell death; also recorded: noticeably larger | induces cell death by apoptosis
6 mer: residues 5-10 of SEQ ID NO:1 (YTCKEP) |  |  |  |  |  |  |  |  |  | reduction of osteosarcoma tumor volume |  |  |  |  | 
